Laboratory results published in US20030066100A1, “Capacitative calcium entry mechanism in porcine oocytes” (priority 2001, published 2003).
Entries after “also recorded” stand apart in the source; their conditions may differ.

Assays:
Assay type in all cases: cell-based
porcine oocytes [1] = assay: Divalent cation influx after InsP3 injection, Mn2+-quench technique
Experimental: (§1) The oocytes were loaded with the Ca^2+ indicator dye fura-2 by being incubated in the presence of 2 μM acetoxymethyl ester form of the dye and 0.02% pluronic F-127 (both from Molecular Probes, Inc., Eugene, Oreg.) for 40-50 minutes. After incubation the oocytes were rinsed, exposed to various treatments and the changes in the intracellular free Ca^2+ concentration ([Ca^2+]i) were followed using a Photoscan-2 photon counting fluorescent microscope system (Nikon Corp., Tokyo, Japan) as described by Macháty et al., Biol Reprod 1997a; 56:921-930. Fluorescence was recorded by calculating the ratio of fura-2 fluorescence at 510 mn excited by UV light alternatively at 340 and 380 nm. Intracellular free Ca^2+ levels are presented as fluorescent ratio values with ratios of 1.2 and 6.5 representing 65 and 602 nM Ca^2+, respectively.
To induce the release of Ca^2+ from the intracellular stores, the second messenger InsP3 was injected into the oocytes' cytoplasm using a microinjector (Narishige Co. Ltd., Tokyo, Japan). InsP3 was dissolved in carrier medium consisting of 10 mM Hepes and 100 μM EGTA buffered at pH 7.0. The amount injected was about 40 pl, which is 4% of the total cytoplasmic volume of ˜1000 pl. Microinjection was performed in HEPES-TL-PVA on a heated stage of a Nikon Diaphot inverted microscope (Nikon Corp., Tokyo, Japan).
The onset of a divalent cation influx after a Ca^2+ transient was investigated by using the manganese (Mn^2+)-quench technique disclosed by Hallam et al., Biochem. J. 1988; 255:179-184. Release of Ca^2+ from the intracellular stores was stimulated by intracellular injection of approximately 40 pl of 2.5 μM InsP3, the InsP3 receptor agonist. As a Ca^2+ surrogate, Mn^2+ was added to the external medium. Mn^2+ was reported to be able to translocate across the plasma membrane, bind fura-2 and quench its fluorescence. This technique enables measurement of divalent cation influx even when Ca^2+ release from the internal stores is coincident. The entry of Mn^2+ into the cell was monitored by imaging the resulting quench in fura-2 fluorescence at 510 nm excited alternatively at 340 and 360 nm. While the signal resulting from the 340 nm excitation is [Ca^2+]i sensitive, at 360 nm fura-2 fluorescence is independent of [Ca^2+]i and any decrease in fluorescence is due only to Mn^2+ entry.

porcine oocytes [2] = assay: Capacitative Ca2+ entry after store depletion and re-addition of Ca2+ (fura-2 fluorescence)
Experimental: as §1
(§2) A Ca^2+ influx was generated in porcine oocytes by the depletion of the intracellular Ca^2+ stores. […] It is routinely used to drain the intracellular stores of their Ca^2+ content. Fura-2-loaded oocytes were incubated in Ca^2+-free HEPES-TL-PVA medium in the presence of 10-50 μM thapsigargin for 3 hours to deplete intracellular Ca^2+ stores. After washing in Ca^2+-free medium (to remove thapsigargin and ensure that the intracellular stores remain empty), normal Ca^2+-containing medium was added to the oocytes and the changes in the [Ca^2+]i were measured. Oocytes incubated in Ca^2+-free HEPES-TL-PVA for 3 hours without thapsigargin were used to show the Ca^2+ entry under normal conditions, when the intracellular Ca^2+ stores were full.

porcine oocytes [3] = assay: Capacitative Ca2+ entry in oocytes expressing Drosophila trp; conditions: 1 mM La3+
Excerpt: The plasmid vector pBluescript KS, containing the Drosophila trp cDNA ctrp-9 downstream of the T7 promoter (a generous gift from C. Montell) was transfected into Escherichia coli DH5α cells. Plasmid DNA was isolated and linearized with the restriction endonuclease KpnI (Promega Corp., Madison, Wis.) and mRNA was transcribed from the cDNA with T7 polymerase using the RiboMAX™ Large Scale RNA Production System (Promega), following the manufacturer's recommendations. In order to produce capped RNA transcripts, the reaction was performed in the presence of 3 mM m^7G(5′)ppp(5′)G (Boehringer-Mannheim Corp., Indianapolis, Ind.). Purified RNA was precipitated with 0.3 M sodium acetate and ethanol. The pellet was resuspended in diethylpyrocarbonate (DEPC)-treated water containing RNasin (1 IU/μl; from Promega) to a final concentration of approximately 800 ng/μl and the samples were stored in 3 μl aliquots at −70° C.
The Drosophila trp protein was expressed in porcine oocytes by injecting approximately 32 pg mRNA made by in vitro transcription of the cDNA and allowing 15 hours for translation. Control oocytes were injected with the carrier medium (DEPC-treated water). […] The baseline fluorescence of the oocytes was then recorded in Ca^2+-free HEPES-TL-PVA, and changes in [Ca^2+]i were measured for 20-30 minutes after the addition of Ca^2+-containing medium.

porcine oocytes [4] = assay: Ca2+ release by thapsigargin in Ca2+-free medium (fura-2 fluorescence)
Experimental: as §1
as §2, with “Oocytes incubated in Ca^2+-free HEPES-TL-PVA for 3 hours without thapsigargin were used to show the Ca^2+ entry under normal conditions, when the intracellular Ca^2+ stores were full.” left out

[5] = 1 mM La3+, InsP3 microinjected, Mn2+ added

## O=P(O)(O)O[C@@H]1[C@H](O)[C@H](O)[C@@H](OP(=O)(O)O)[C@H](OP(=O)(O)O)[C@H]1O [InsP3, inositol 1,4,5-trisphosphate]
Porcine oocytes [1]; InsP3 microinjected, 3 mM Mn2+ in the external medium
  oocytes with rapid decline in fluorescence well below the basal value (Mn2+ entry): 14/14
Porcine oocytes [1]; injection of about 40 pl of 2.5 μM InsP3
  oocytes with transient elevation in fluorescence at 340 nm excitation (increase in [Ca2+]i): 16 out of 16

## [La+3] [La^3+, lanthanum]
Porcine oocytes [1]; [5]
  block of cation influx and decline in fluorescence at both wavelengths: totally blocked
  oocytes in which fluorescence intensities stayed near the resting values: 7/7
Porcine oocytes [2]; 1 mM La3+
  block of thapsigargin-evoked Ca2+ entry: totally inhibited; also recorded: completely blocked
  oocytes in which thapsigargin-evoked Ca2+ entry was blocked: 11/11
Porcine oocytes [3]
  block of Ca2+ entry-evoked [Ca2+]i increase: completely blocked

## C/C=C(/C)C(=O)O[C@H]1C(C)=C2[C@H]([C@@H]1OC(=O)CCCCCCC)[C@@](C)(OC(C)=O)C[C@H](OC(=O)CCC)[C@@]1(O)[C@H]2OC(=O)[C@@]1(C)O [thapsigargin]
Porcine oocytes [4]; 10-50 μM thapsigargin in Ca2+-free medium
  change in [Ca2+]i: induced an increase in [Ca^2+]i
Porcine oocytes [4]; 10 and 20 μM thapsigargin, Ca2+-free medium
  increase in [Ca2+]i relative to 50 μM: slightly smaller increases in [Ca^2+]i
Porcine oocytes [2]; after thapsigargin store depletion
  start of the increase in [Ca2+]i after adding the HEPES-TL-PVA medium: 0 to 300 s
Porcine oocytes [2]; stores emptied with thapsigargin for 3 hours in Ca2+-free medium
  oocytes showing Ca2+ entry (rise in [Ca2+]i) after re-addition of Ca2+: 15 out of 18
